US12202835B2, “Substituted aromatic ring-linked dioxinoquinazolines and dioxinoquinolines as kinase inhibitors” (BEIJING SCITECH-MQ PHARMACEUTICALS LIMITED, priority 2018, dated 2025)

How the values were obtained:
VEGFR-2 kinase = VEGFR-2 kinase (Homo sapiens (Human), UniProt P35968); experiment: Assay of small molecular compounds for inhibiting the activity of VEGFR-2 kinase (LANCE TR-FRET); format: biochemical; conditions: read-out: VEGFR2 IC50
Procedure, shortened: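 LANCE TR-FRET with human VEGFR-2 (2× stock 0.5 nM) preincubated 30 min with compound (final 2500 to 0.042 nM, 11-point 3-fold), then ULight-JAK-1 (Tyr1023) peptide/ATP added (4× stocks 200 nM/40 μM). Reaction 60 min room temperature, 4% DMSO; IC50 from inhibition-rate curve.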

MHCC97H cells = experiment: Assay for inhibiting the proliferation of MHCC97H cells (CCK-8); format: cell-based; conditions: Homo sapiens
Procedure, shortened: (§1)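 Cells seeded in 96-well plates overnight, then exposed 72 h to 9 three-fold dilutions of compound (0.25% DMSO final). Viability by CCK-8 (1-2 h at 37° C., OD 450 nm), survival normalized to untreated and cell-free blanks; IC50 by curve fitting.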

[1] = test system: Ba/F3 LMNA-NTRK1-G595R cells; experiment: Assay for inhibiting the proliferation of Ba/F3 LMNA-NTRK1-G595R cells (CCK-8); format: cell-based; conditions: Mus musculus, BaF3
Procedure, shortened: as §1

MER kinase = MER kinase (Homo sapiens (Human), UniProt Q12866); experiment: Assay of small molecular compounds for inhibiting the activity of MER kinase (LANCE TR-FRET); format: biochemical
MER kinase, sequence (Q12866 21-999): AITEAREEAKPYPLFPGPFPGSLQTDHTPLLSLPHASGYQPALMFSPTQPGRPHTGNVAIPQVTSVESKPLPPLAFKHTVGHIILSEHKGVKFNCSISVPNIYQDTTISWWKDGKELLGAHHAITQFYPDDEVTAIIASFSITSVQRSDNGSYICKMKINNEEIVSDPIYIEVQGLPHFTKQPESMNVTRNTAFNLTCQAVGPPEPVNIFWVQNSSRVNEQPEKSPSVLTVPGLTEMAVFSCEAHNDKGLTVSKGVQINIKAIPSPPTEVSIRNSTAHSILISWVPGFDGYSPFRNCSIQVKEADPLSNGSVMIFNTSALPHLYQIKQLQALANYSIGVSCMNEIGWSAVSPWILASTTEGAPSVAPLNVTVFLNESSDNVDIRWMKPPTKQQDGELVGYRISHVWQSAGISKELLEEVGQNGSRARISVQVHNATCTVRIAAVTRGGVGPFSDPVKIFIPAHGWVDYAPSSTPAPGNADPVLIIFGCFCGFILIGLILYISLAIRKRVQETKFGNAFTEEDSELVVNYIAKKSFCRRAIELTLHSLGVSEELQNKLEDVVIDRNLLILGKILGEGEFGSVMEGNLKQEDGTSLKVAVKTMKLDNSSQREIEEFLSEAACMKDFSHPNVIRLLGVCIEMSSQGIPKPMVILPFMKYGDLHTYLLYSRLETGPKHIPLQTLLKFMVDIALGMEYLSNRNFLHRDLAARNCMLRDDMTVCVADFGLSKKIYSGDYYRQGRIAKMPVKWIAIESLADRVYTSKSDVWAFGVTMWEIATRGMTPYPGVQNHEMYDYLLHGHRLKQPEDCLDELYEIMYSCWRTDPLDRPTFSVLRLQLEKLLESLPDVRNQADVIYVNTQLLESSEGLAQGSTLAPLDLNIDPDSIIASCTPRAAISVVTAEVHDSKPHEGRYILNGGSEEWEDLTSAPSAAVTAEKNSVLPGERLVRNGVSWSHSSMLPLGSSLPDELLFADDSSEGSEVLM
Procedure, shortened: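 MER kinase preincubated 5 min at RT with compound (11 points, 0.042-2500 nM final), then ULight-poly GT and ATP added (4× stocks 200 nM and 20 μM) for 60 min at RT, 1% DMSO. Phosphorylation detected by LANCE TR-FRET; IC50 from % inhibition versus controls.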

VEGFR-2 kinase, sequence (P35968 20-1356): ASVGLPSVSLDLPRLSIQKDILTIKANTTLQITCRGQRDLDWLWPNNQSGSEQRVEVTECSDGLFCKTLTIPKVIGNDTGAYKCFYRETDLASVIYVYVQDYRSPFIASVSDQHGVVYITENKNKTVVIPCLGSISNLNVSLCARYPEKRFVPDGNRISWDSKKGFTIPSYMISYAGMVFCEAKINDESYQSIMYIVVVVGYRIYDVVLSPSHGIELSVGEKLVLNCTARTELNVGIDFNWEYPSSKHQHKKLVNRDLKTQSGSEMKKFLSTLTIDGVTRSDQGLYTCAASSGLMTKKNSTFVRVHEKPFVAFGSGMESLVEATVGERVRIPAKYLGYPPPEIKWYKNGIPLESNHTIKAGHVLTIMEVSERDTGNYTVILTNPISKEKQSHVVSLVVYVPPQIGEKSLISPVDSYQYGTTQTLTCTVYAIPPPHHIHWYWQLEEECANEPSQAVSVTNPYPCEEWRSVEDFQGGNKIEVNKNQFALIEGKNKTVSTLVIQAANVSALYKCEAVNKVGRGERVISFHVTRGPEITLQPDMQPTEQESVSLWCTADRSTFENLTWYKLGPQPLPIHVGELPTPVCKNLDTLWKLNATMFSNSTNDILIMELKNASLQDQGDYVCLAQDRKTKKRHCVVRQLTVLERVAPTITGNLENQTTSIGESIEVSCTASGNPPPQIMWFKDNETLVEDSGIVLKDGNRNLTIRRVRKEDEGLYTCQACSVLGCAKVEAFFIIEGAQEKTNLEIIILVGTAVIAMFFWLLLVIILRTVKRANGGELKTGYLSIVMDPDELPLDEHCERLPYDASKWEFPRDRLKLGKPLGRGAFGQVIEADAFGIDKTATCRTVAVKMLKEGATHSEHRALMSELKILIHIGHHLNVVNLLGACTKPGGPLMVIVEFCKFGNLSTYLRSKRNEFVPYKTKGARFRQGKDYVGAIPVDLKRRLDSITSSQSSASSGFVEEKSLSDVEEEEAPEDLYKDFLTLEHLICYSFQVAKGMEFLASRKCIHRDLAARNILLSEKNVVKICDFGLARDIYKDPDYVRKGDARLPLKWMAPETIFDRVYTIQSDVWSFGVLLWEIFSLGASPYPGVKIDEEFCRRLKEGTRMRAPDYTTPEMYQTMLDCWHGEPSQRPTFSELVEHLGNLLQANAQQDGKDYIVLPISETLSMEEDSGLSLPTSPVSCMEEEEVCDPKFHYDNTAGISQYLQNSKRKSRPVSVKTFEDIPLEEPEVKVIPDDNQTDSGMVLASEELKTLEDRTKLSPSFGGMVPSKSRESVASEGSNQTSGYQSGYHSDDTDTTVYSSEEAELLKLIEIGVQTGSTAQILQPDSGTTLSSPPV

SMILES | IC50 (VEGFR-2 kinase) | IC50 (MHCC97H cells) | IC50 [1] | IC50 (MER kinase)
CCn1cc(C(=O)Nc2cc(F)c(Oc3ccnc4cc(OCCOC)c5c(c34)OCCO5)cc2C)c(=O)n(-c2ccc(F)cc2)c1=O [Example 180, N-(5-fluoro-4-((5-(2-methoxyethoxy)-2,3-dihydro-[1,4]dioxino[2,3-f]quinolin-10-yl)oxy)-2-methylphenyl)-3-(4-fluorophenyl)-1-ethyl-2,4-dioxo-1,2,3,4-tetrahydropyrimidine-5-carboxamide] | 500 to 5000 nM | ≤ 50 nM | ≤ 50 nM | 
CC(C)n1cc(C(=O)Nc2ccc(Oc3ccnc4cc(OCC(C)(C)O)c5c(c34)OCCO5)c(F)c2)c(=O)n(-c2ccc(F)cc2)c1=O [Example 122, N-(3-fluoro-4-((5-(2-hydroxy-2-methylpropoxy)-2,3-dihydro-[1,4]dioxino[2,3-f]quinolin-10-yl)oxy)phenyl)-3-(4-fluorophenyl)-1-isopropyl-2,4-dioxo-1,2,3,4-tetrahydropyrimidine-5-carboxamide] | 500 to 5000 nM |  | 200 to 1000 nM | ≤ 50 nM
COc1cc2ncnc(Oc3ccc(NC(=O)c4cn(C)c(=O)n(-c5ccc(F)cc5)c4=O)cc3F)c2c2c1OCCO2 [Example 29, N-(3-fluoro-4-((5-methoxy-2,3-dihydro-[1,4]dioxino[2,3-f]quinazolin-10-yl)oxy)phenyl)-3-(4-fluorophenyl)-1-methyl-2,4-dioxo-1,2,3,4-tetrahydropyrimidine-5-carboxamide] | 500 to 5000 nM |  | 200 to 1000 nM | ≤ 50 nM
CCn1cc(C(=O)Nc2ccc(Oc3ccnc4cc(OCCCN5CCOCC5)c5c(c34)OCCO5)c(F)c2)c(=O)n(-c2ccc(F)cc2)c1=O [Example 38, N-(3-fluoro-4-((5-(3-morpholinopropoxy)-2,3-dihydro-[1,4]dioxino[2,3-f]quinolin-10-yl)oxy)phenyl)-3-(4-fluorophenyl)-1-ethyl-2,4-dioxo-1,2,3,4-tetrahydropyrimidine-5-carboxamide] | 50 to 500 nM |  | 200 to 1000 nM | ≤ 50 nM
CCOc1cc2nccc(Oc3ccc(NC(=O)c4cn(C)c(=O)n(-c5ccc(F)cc5)c4=O)c(Cl)c3)c2c2c1OCCO2 [Example 129, N-(2-chloro-4-((5-ethoxy-2,3-dihydro-[1,4]dioxino[2,3-f]quinolin-10-yl)oxy)phenyl)-3-(4-fluorophenyl)-1-methyl-2,4-dioxo-1,2,3,4-tetrahydropyrimidine-5-carboxamide] | 500 to 5000 nM |  | ≤ 50 nM | ≤ 50 nM
CCn1cc(C(=O)Nc2ccc(Oc3ccnc4cc(OC)c5c(c34)OCCO5)c(F)c2)c(=O)n(-c2ccc(F)cc2)c1=O [Example 37, N-(3-fluoro-4-((5-methoxy-2,3-dihydro-[1,4]dioxino[2,3-f]quinolin-10-yl)oxy)phenyl)-3-(4-fluorophenyl)-1-ethyl-2,4-dioxo-1,2,3,4-tetrahydropyrimidine-5-carboxamide] | 50 to 500 nM |  | 50 to 200 nM | ≤ 50 nM
Cn1cc(C(=O)Nc2ccc(Oc3ccnc4ccc5c(c34)OCCO5)cc2F)c(=O)n(-c2ccc(F)cc2)c1=O [Example 162, N-(4-((2,3-dihydro-[1,4]dioxino[2,3-f]quinolin-10-yl)oxy)-2-fluorophenyl)-3-(4-fluorophenyl)-1-methyl-2,4-dioxo-1,2,3,4-tetrahydropyrimidine-5-carboxamide] | 500 to 5000 nM |  | 50 to 200 nM | 50 to 500 nM
Cn1cc(C(=O)Nc2ccc(Oc3ccnc4cc(OCCCN5CCCCC5)c5c(c34)OCCO5)cc2Cl)c(=O)n(-c2ccc(F)cc2)c1=O [Example 137, N-(2-chloro-4-((5-((3-piperidin-1-yl)propoxy)-2,3-dihydro-[1,4]dioxino[2,3-f]quinolin-10-yl)oxy)phenyl)-3-(4-fluorophenyl)-1-methyl-2,4-dioxo-1,2,3,4-tetrahydropyrimidine-5-carboxamide] | 50 to 500 nM |  | ≤ 50 nM | ≤ 50 nM
